According to patent publication US5610174A, “Use of α1A -selective adrenoceptor agonists for the treatment of urinary incontinence” (priority 1995, dated 1997):

Legend:
α2-adrenoceptors = experiment: Activity at human α2-adrenoceptors (overall statement); format: cell-based; settings: result in words
Method: α2 -Adrenoceptor-Mediated Inhibition of Forskolin Stimulated Adenylyl Cyclase
The agonist activity of test compounds was assayed by measuring their ability to inhibit adenylyl cyclase in cells stably transfected with each of the three cloned human α2 -adrenoceptors. LM(tk-) cells expressing the α2A - or the α2C -, as well as Y1 cells expressing the α2B -adrenoceptor were used. […] The formation of cyclic AMP was measured in cultures incubated with DMEM containing 1 mM theophylline. Twelve concentrations of the test compounds (from 10 pM to 100 μM) were added to the incubation medium and incubated at 37° C. for 20 min. Following this incubation step, 10 μM forskolin was added to stimulate the formation of cyclic AMP, and the cultures were incubated for another 10 min. The reaction was stopped by replacing the incubation medium with 100 mM HCl . The intracellular levels of cyclic AMP were measured by radioimmunoassay. The data from concentration-response curves was fitted to a four-parameter logistic equation, by non-linear regression analysis, to determine the pEC50 and intrinsic activity.

[1] = target: T1, human urethra (α1-adrenoceptor) (Homo sapiens, UniProt P35348); experiment: Contractile study in isolated human male urethra; settings: versus phenylephrine-induced contraction; read-out: pKB Human Urethra Male (converted)
T1 construct: Tissue samples from the proximal urethra of male humans; from tissue; host or cells: human male proximal urethra strips
T1 sequence (P35348 1-466): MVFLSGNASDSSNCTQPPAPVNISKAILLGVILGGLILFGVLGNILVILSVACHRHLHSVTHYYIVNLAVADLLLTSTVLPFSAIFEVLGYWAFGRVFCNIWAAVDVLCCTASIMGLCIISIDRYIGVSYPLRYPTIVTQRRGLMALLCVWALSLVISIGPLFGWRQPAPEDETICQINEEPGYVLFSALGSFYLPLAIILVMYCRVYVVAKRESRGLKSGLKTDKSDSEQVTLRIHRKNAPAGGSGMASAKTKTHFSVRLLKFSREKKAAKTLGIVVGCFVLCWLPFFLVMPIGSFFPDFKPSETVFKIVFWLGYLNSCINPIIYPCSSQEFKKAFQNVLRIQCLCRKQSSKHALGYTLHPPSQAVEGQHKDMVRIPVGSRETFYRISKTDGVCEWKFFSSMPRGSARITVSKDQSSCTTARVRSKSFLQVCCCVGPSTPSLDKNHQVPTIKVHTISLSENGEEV
Excerpt: (§1) In addition, similar studies were done using bladder neck tissue from female dogs. In order to identify the specific receptor subtype in each tissue, the pharmacological profile was compared to the profiles for these same drugs at the cloned human α1A, α1B, or α1C subtypes.
(§2) Tissue samples from the proximal urethra of male humans and male and female rabbits, as well as tissue samples from both the proximal urethra and bladder neck of male and female dogs were cut into transverse strips (3×10 mm) and suspended under 0.5 g tension in Krebs' physiological buffer at 37° C. To determine agonist potency (pEC50 )and antagonist affinity constants (pKB), concentration-effect curves to the non-selective agonist phenylepherine were constructed in the absence and in the presence of increasing concentrations of the antagonist. Up to four sequential curves were constructed in each tissue. Antagonists were allowed to equilibrate for 1h before each concentration-effect curve, and the drugs were completely washed out in between successive curves. In each experiment, one tissue served as a "time control", in which no antagonist was added so that changes in tissue sensitivity could be assessed as a function of time. […] In instances in which a single concentration of antagonist was used, pKB values were determined by the equation: […], where CR is defined as the ratio of the agonist EC50 in the presence of the antagonist to that in the absence of the antagonist.

[2] = target: T2, rabbit urethra, female (α1-adrenoceptor) (Oryctolagus cuniculus, UniProt O02824); experiment: Contractile study in isolated female rabbit urethra; settings: versus phenylephrine-induced contraction; read-out: pKB Rabbit Urethra Female (converted)
T2 construct: proximal urethra of male humans and male and female rabbits; from tissue; host or cells: rabbit proximal urethra strips, male or female
T2 sequence (O02824 1-466): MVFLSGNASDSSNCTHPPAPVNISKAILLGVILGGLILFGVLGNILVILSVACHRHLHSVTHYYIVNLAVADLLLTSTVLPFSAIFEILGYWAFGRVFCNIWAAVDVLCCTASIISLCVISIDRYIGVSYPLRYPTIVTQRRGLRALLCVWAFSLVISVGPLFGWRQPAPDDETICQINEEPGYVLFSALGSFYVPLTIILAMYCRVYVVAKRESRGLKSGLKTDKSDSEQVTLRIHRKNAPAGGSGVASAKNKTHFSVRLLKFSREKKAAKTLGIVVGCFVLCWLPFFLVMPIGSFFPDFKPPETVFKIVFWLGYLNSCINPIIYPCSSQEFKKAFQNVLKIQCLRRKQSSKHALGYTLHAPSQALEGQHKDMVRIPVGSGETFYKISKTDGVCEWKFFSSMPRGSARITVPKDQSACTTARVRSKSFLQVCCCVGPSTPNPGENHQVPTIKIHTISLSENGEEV
Excerpt: as §1, §2

[3] = target: T3, human histamine H2 receptor (Homo sapiens, UniProt P25021); experiment: Radioligand binding at cloned human histamine H2; settings: [3H]tiotidine
T3 construct: expressed in transfected cells; host or cells: COS-7 (plasmid pcEXV-H2, ATCC 75345)
T3 sequence (P25021 whole entry): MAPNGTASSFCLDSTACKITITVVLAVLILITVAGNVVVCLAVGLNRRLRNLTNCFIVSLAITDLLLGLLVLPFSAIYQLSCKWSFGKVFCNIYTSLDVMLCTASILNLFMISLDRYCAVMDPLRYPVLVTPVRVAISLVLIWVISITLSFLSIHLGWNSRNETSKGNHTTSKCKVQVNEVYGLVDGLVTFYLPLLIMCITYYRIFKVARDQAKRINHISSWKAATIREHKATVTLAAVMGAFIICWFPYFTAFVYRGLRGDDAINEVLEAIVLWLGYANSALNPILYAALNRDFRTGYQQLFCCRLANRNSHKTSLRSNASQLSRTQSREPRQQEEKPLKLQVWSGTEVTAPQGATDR
Method: Human Histamine H2 Receptor
The coding sequence of the human H2 receptor was obtained from a human placenta genomic library, and cloned into the cloning site of PCEXV-3 eukaryotic expression vector. The plasmid DNA for the H2 receptor is designated pcEXV-H2, and was deposited on Nov. 6, 1992 under ATCC Accession No. 75345. This construct was transfected into COS-7 cells by the DEAE-dextran method. Cells were harvested after 72 hours and lysed by sonication in 5 mM Tris-HCl, 5 mM EDTA, pH 7.5. The cell lysates were centrifuged at 1000 rpm for 5 min at 4° C., and the supernatant was centrifuged at 30,000×g for 20 min at 4° C. The pellet was suspended in 37.8 mM NaHPO4, 12.2 mM K2PO4, pH 7.5. The binding of the histamine H2 antagonist [3H] tiotidine (5 nM, specific activity: about 70 Ci/mM) was done in a final volume of 0.25 ml and incubated at room temperature for 60 min. Nonspecific binding was determined in the presence of 10 μM histamine. The bound radioligand was separated by filtration through GF/B filters using a cell harvester.

SMILES | activity at α2-adrenoceptors (α2-adrenoceptors) | Kb [1] [nM] | Kb [2] [nM] | other results
CS(=O)(=O)Nc1c(O)ccc2c1CCCC2C1=NCCN1 (racemic) [Compound A-61603, (±)-N-[5-(4,5-Dihydro-1H-imidazol-2-yl)-2-hydroxy-5,6,7,8-tetra-hydronaphthalen-1-yl]methanesulfonamide] | significant activity | – | – | –
COc1ccccc1N1CCN(CCCNc2c(C)c(=O)n(C)c(=O)n2C)CC1 [Compound 5-MU] | – | 1.58 | 39.8 | –
COc1cc2c(cc1OC)CN(c1cc(N)c3cc(OC)c(OC)cc3n1)CC2 [Abanoquil, 2-(6,7-Dimethoxy-3,4-dihydro-1H-isoquinolin-2-yl)-6,7-dimethoxyquinolin-4-ylamine hemifumarate hydrate] | – | 0.251 | 2 | –
COc1ccc(SC)c2c1C[C@@H]1[C@@H](C2)OCCN1C (relative stereo) [SDZ NVI-085, (±)-trans-4-Methyl-6-methoxy-9-thiomethoxy-3,4,4a, 5,10,10a-hexahydro-2H-naphtho[2,3-b][1,4]oxazine] | – | – | – | Ki ([3]; read-out: pKi H2 (converted)): 6310 nM
CNCCc1ccc(O)c(NS(C)(=O)=O)c1 [SK&F 102652] | significant activity | – | – | pKi H2 [3]: 4.6
